# Test results from ChEMBL document CHEMBL2385072, “Development of oleanane-type triterpenes as a new class of HCV entry inhibitors” (J Med Chem, 2013).
# Key:
# Conditions in all cases: HEK-293T
# [1] = test system: Hepatitis C virus; experiment: Antiviral activity against pseudo HCV infected in human 293T cells assessed as inhibition of HCV pseudo particles entry at 5 uM after 72 hrs by luciferase reporter gene assay; type: functional, Hepacivirus hominis
# [2] = test system: Vesicular stomatitis virus; experiment: Antiviral activity against pseudo VSV infected in human 293T cells assessed as inhibition of vesicular stromatis G protein pseudo particles entry at 1 uM after 72 hrs by luciferase reporter gene assay; type: functional
# [3] = test system: Vesicular stomatitis virus; experiment: Antiviral activity against pseudo VSV infected in human 293T cells assessed as inhibition of vesicular stromatis G protein pseudo particles entry at 5 uM after 72 hrs by luciferase reporter gene assay; type: functional
# [4] = test system: Hepatitis C virus; experiment: Antiviral activity against pseudo HCV infected in human 293T cells assessed as inhibition of HCV pseudo particles entry at 1 uM after 72 hrs by luciferase reporter gene assay; type: functional, Hepacivirus hominis
Compound,inhibition at 5 µM [1],inhibition at 1 µM [2],inhibition at 5 µM [3],inhibition at 1 µM [4]
CC1(C)CC[C@]2(C(=O)O[C@@H]3OC[C@@H](O)[C@H](O)[C@H]3O)[C@H](O)C[C@]3(C)C(=CC[C@@H]4[C@@]5(C)CC[C@H](O)C(C)(C)[C@@H]5CC[C@]43C)[C@@H]2C1,77.7%,36.5%,13%,33.8%
CC(=O)O[C@@H]1[C@H](OC(C)=O)[C@H](n2cc(CNC(=O)[C@]34CCC(C)(C)C[C@H]3C3=CC[C@@H]5[C@@]6(C)CC[C@H](O)C(C)(C)[C@@H]6CC[C@@]5(C)[C@]3(C)C[C@H]4O)nn2)O[C@H](C)[C@H]1OC(C)=O,71.6%,32.6%,-10.7%,17%
CC(=O)OC[C@H]1O[C@@H](n2cc(CNC(=O)[C@]34CCC(C)(C)C[C@H]3C3=CC[C@@H]5[C@@]6(C)CC[C@H](O)C(C)(C)[C@@H]6CC[C@@]5(C)[C@]3(C)C[C@H]4O)nn2)[C@H](OC(C)=O)[C@@H](OC(C)=O)[C@H]1OC(C)=O,66.5%,24.3%,30.6%,20.4%
CC1(C)CC[C@]2(C(=O)NCCCNC(=O)[C@]34CCC(C)(C)C[C@H]3C3=CC[C@@H]5[C@@]6(C)CC[C@H](O)C(C)(C)[C@@H]6CC[C@@]5(C)[C@]3(C)C[C@H]4O)[C@H](O)C[C@]3(C)C(=CC[C@@H]4[C@@]5(C)CC[C@H](O)C(C)(C)[C@@H]5CC[C@]43C)[C@@H]2C1,58.2%,18.7%,27.6%,44.6%
CC1(C)CC[C@]2(C(=O)O)[C@H](O)C[C@]3(C)C(=CC[C@@H]4[C@@]5(C)[C@H](O)C[C@H](O)C(C)(C)[C@@H]5CC[C@]43C)[C@@H]2C1,35.2%,7.9%,11.8%,14.3%
COC(=O)[C@]12CCC(C)(C)C[C@H]1C1=CC[C@@H]3[C@@]4(C)CC[C@H](OC(C)=O)C(C)(C)[C@@H]4CC[C@@]3(C)[C@]1(C)C[C@H]2OC(C)=O,20.1%,15.8%,24.2%,13.5%
CC(=O)OC[C@H]1O[C@@H](n2cc(CNC(=O)[C@]34CCC(C)(C)C[C@H]3C3=CC[C@@H]5[C@@]6(C)CC[C@H](O)C(C)(C)[C@@H]6CC[C@@]5(C)[C@]3(C)C[C@H]4O)nn2)[C@@H](OC(C)=O)[C@@H](OC(C)=O)[C@@H]1OC(C)=O,81.5%,-5.3%,14.7%,21.8%
CC1(C)CC[C@]2(C(=O)O)[C@H](O)C[C@]3(C)C(=CC[C@@H]4[C@@]5(C)CC[C@H](O)C(C)(C)[C@@H]5C[C@H](O)[C@]43C)[C@@H]2C1,53.5%,1.6%,5.6%,30.4%
CC1(C)CC[C@]2(C(=O)O[C@@H]3O[C@H](CO)[C@@H](O[C@@H]4O[C@H](CO)[C@H](O)[C@H](O)[C@H]4O)[C@H](O)[C@H]3O)[C@H](O)C[C@]3(C)C(=CC[C@@H]4[C@@]5(C)CC[C@H](O)C(C)(C)[C@@H]5CC[C@]43C)[C@@H]2C1,40.1%,22.6%,16.7%,32.7%
CC(=O)OC[C@H]1O[C@H](O[C@H]2[C@H](OC(C)=O)[C@@H](OC(C)=O)[C@H](OC(=O)[C@]34CCC(C)(C)C[C@H]3C3=CC[C@@H]5[C@@]6(C)CC[C@H](O)C(C)(C)[C@@H]6CC[C@@]5(C)[C@]3(C)C[C@H]4O)O[C@@H]2COC(C)=O)[C@H](OC(C)=O)[C@@H](OC(C)=O)[C@@H]1OC(C)=O,50%,20.9%,23.4%,36.5%
CC1(C)CC[C@]2(C(=O)O)[C@H](O)C[C@]3(C)C(=CC[C@@H]4[C@@]5(C)CC[C@H](OS(=O)(=O)O)C(C)(C)[C@@H]5CC[C@]43C)[C@@H]2C1,55.2%,39.1%,40.4%,33.4%
CC1(C)CC[C@]2(C(=O)NCc3cn([C@@H]4O[C@H](CO)[C@@H](O)[C@H](O)[C@H]4O)nn3)[C@H](O)C[C@]3(C)C(=CC[C@@H]4[C@@]5(C)CC[C@H](O)C(C)(C)[C@@H]5CC[C@]43C)[C@@H]2C1,33.1%,-15.2%,19.1%,12.4%
CC(=O)OC[C@H]1O[C@@H](n2cc(CNC(=O)[C@]34CCC(C)(C)C[C@H]3C3=CC[C@@H]5[C@@]6(C)CC[C@H](O)C(C)(C)[C@@H]6CC[C@@]5(C)[C@]3(C)C[C@H]4O)nn2)[C@H](OC(C)=O)[C@@H](OC(C)=O)[C@@H]1O[C@H]1O[C@H](COC(C)=O)[C@@H](O[C@H]2O[C@H](COC(C)=O)[C@@H](OC(C)=O)[C@H](OC(C)=O)[C@H]2OC(C)=O)[C@H](OC(C)=O)[C@H]1OC(C)=O,62.9%,17.7%,14%,45.4%
COC(=O)[C@@]12C=C[C@]3(C)C(=CC[C@@H]4[C@@]5(C)CC[C@H](O)C(C)(C)[C@@H]5CC[C@]43C)[C@@H]1CC(C)(C)CC2,27.9%,15.2%,18.8%,12.3%
COC(=O)[C@]12CCC(C)(C)C[C@H]1C1=CC[C@@H]3[C@@]4(C)CC[C@H](O[Si](C)(C)C(C)(C)C)C(C)(C)[C@@H]4CC[C@@]3(C)[C@]1(C)CC2=O,-3.8%,45.3%,40.2%,11.5%
CC1(C)CC[C@]2(C(=O)NCc3cn([C@@H]4OC[C@@H](O)[C@H](O)[C@H]4O)nn3)[C@H](O)C[C@]3(C)C(=CC[C@@H]4[C@@]5(C)CC[C@H](O)C(C)(C)[C@@H]5CC[C@]43C)[C@@H]2C1,27.8%,34.4%,27%,14.8%
CC(=O)O[C@@H]1[C@H](OC(C)=O)[C@H](n2cc(CNC(=O)[C@]34CCC(C)(C)C[C@H]3C3=CC[C@@H]5[C@@]6(C)CC[C@H](O)C(C)(C)[C@@H]6CC[C@@]5(C)[C@]3(C)C[C@H]4O)nn2)OC[C@H]1OC(C)=O,65.8%,29.3%,32.2%,21.8%
CC1(C)CC[C@]2(C(=O)NCc3cn([C@@H]4O[C@H](CO)[C@@H](O[C@@H]5O[C@H](CO)[C@@H](O)[C@H](O)[C@H]5O)[C@H](O)[C@H]4O)nn3)[C@H](O)C[C@]3(C)C(=CC[C@@H]4[C@@]5(C)CC[C@H](O)C(C)(C)[C@@H]5CC[C@]43C)[C@@H]2C1,11.8%,26.6%,50.5%,15.2%
COC(=O)[C@@]12C=C[C@]3(C)C(=CC[C@@H]4[C@@]5(C)CC=CC(C)(C)[C@@H]5CC[C@]43C)[C@@H]1CC(C)(C)CC2,14%,20.9%,33.9%,35.8%
COC(=O)[C@]12CCC(C)(C)C[C@H]1[C@H]1C(=O)C[C@@H]3[C@@]4(C)CC[C@H](O)C(C)(C)[C@@H]4CC[C@@]3(C)[C@]1(C)C[C@H]2O,-8.7%,42.7%,46.1%,4.9%
CC(=O)OC[C@H]1O[C@@H](n2cc(CNC(=O)[C@]34CCC(C)(C)C[C@H]3C3=CC[C@@H]5[C@@]6(C)CC[C@H](O)C(C)(C)[C@@H]6CC[C@@]5(C)[C@]3(C)C[C@H]4O)nn2)[C@H](OC(C)=O)[C@@H](OC(C)=O)[C@@H]1O[C@H]1O[C@H](COC(C)=O)[C@@H](OC(C)=O)[C@H](OC(C)=O)[C@H]1OC(C)=O,79.7%,13.2%,28.9%,56.4%
CC1(C)CC[C@]2(C(=O)O)[C@H](OS(=O)(=O)O)C[C@]3(C)C(=CC[C@@H]4[C@@]5(C)CC[C@H](O)C(C)(C)[C@@H]5CC[C@]43C)[C@@H]2C1,-2.7%,38.5%,34.7%,1%
CC(=O)OC[C@H]1O[C@@H](OC(=O)[C@]23CCC(C)(C)C[C@H]2C2=CC[C@@H]4[C@@]5(C)CC[C@H](O)C(C)(C)[C@@H]5CC[C@@]4(C)[C@]2(C)C[C@H]3O)[C@H](OC(C)=O)[C@@H](OC(C)=O)[C@H]1OC(C)=O,81.6%,29.3%,30.7%,43.4%
COC(=O)[C@]12CCC(C)(C)C[C@H]1C1=CC[C@@H]3[C@@]4(C)CC[C@H](OCc5ccccc5)C(C)(C)[C@@H]4CC[C@@]3(C)[C@]1(C)C[C@H]2O,5.2%,12.6%,25%,10.5%
CC1(C)CC[C@]2(C(=O)NCc3cn([C@@H]4O[C@H](CO)[C@@H](O[C@H]5O[C@H](CO)[C@@H](O[C@H]6O[C@H](CO)[C@@H](O)[C@H](O)[C@H]6O)[C@H](O)[C@H]5O)[C@H](O)[C@H]4O)nn3)[C@H](O)C[C@]3(C)C(=CC[C@@H]4[C@@]5(C)CC[C@H](O)C(C)(C)[C@@H]5CC[C@]43C)[C@@H]2C1,39%,19.7%,27.4%,12.8%
COC(=O)[C@]12CCC(C)(C)C[C@H]1C1=CC[C@@H]3[C@@]4(C)CC[C@H](OC)C(C)(C)[C@@H]4CC[C@@]3(C)[C@]1(C)C[C@H]2O,–,9.9%,30.1%,-14%
